Several values for one entry are separate records, joined by “and”; a condition that tells them apart may be missing. Equal values may be shown once.
Columns and labels:
[1] = system: dimethylnitrosamine (DMN)-induced liver injury male SD rats; assay: Liver function-improving activities by oral administration in the liver injury model (1), 3 weeks; format: in vivo, rat; details: serum, 25 mg/kg oral once a day
Description: The compounds according to the present invention were orally administered to dimethylnitrosamine (DMN)-induced liver injury male SD rats for 3 weeks, so as to evaluate liver function-improving activities. Specifically, 7-week-old male SD rats (Orient Bio, Korea) were accommodated to the laboratory environment at room temperature for 7 days. General symptoms were observed and then only healthy animals were used for the experiment. The rats were divided into 9 groups (n=5 for each group), the normal control group, the group to which only DMN is administered, and the groups to which both the compound of the present invention (the compounds of Example 2, 5, 6, 9, 10, 20 or 21) and DMN are administered. DMN was dissolved in purified water and then administered intraperitoneally at the dose of 10 mg/kg for 3 consecutive weeks (3 times per week, for 4 weeks). Blood samples were collected on Day 3 after the completion of the first-week liver injury inducement and then the ALT (Alanine Transaminase) values and the AST (Aspartate Transaminase) values were measured so as to confirm the liver injury thereof. The compounds of the present invention were administered for 3 weeks, i.e., from Day 4 after the completion of the first-week liver injury inducement to the DMN-administering period. The seven compounds of the present invention were dissolved in purified water or corn oil and then orally administered, using an oral sonde, at the dose of 25 mg/kg once a day for 3 weeks. Blood samples were collected on Day 0 (3 days after the completion of the first-week liver injury inducement) and Day 7, 14 and 21 after the administration of the test compounds. The collected blood was injected into a vacutainer tube containing a clot activator and then allowed to stand at room temperature for about 20 minutes so as to coagulate each blood sample. After centrifugation for 10 minutes, the resulting serums were subjected to blood-biochemical tests.

[2] = system: dimethylnitrosamine (DMN)-induced liver injury male SD rats; assay: Liver function-improving activities by oral administration in the liver injury model (2), 4 weeks, serum ALT/AST and liver histology; format: in vivo, rat; details: for ALT values (average value) / AST values (average value): serum
Description: The compounds according to the present invention were orally administered to dimethylnitrosamine (DMN)-induced liver injury male SD rats for 4 weeks, so as to evaluate liver function-improving activities. Specifically, 7-week-old male SD rats (Orient Bio, Korea) were accommodated to the laboratory environment at room temperature for 7 days. General symptoms were observed and then only healthy animals were used for the experiment. The rats were divided into 3 groups (n=10 for each group), the normal control group, the group to which only DMN is administered, and the group to which both the compound of the present invention (the compound of Example 21) and DMN are administered. DMN was dissolved in purified water and then administered intraperitoneally at the dose of 10 mg/kg for 3 consecutive weeks (3 times per week, for 4 weeks). Blood samples were collected after the completion of the fourth-week liver injury inducement and then the ALT (Alanine Transaminase) values and the AST (Aspartate Transaminase) values were measured so as to confirm the liver injury thereof. The compound of the present invention was administered for 4 weeks, from Day 1 after the completion of the fourth-week liver injury inducement. The compound of the present invention (the compound of Example 21) was dissolved in purified water and then orally administered, using an oral sonde, at the dose of 25 mg/kg once a day for 4 weeks. Blood samples were collected on Day 0 (1 day after the completion of the fourth-week liver injury inducement) and Day 7, 14, 21 and 28 after the administration of the test compound. The collected blood was injected into a vacutainer tube containing a clot activator and then allowed to stand at room temperature for about 20 minutes so as to coagulate each blood sample. After centrifugation for 10 minutes, the resulting serums were subjected to blood-biochemical tests. In addition, at 24 hours after the last administration, an autopsy for hepatectomy and fixation was performed to prepare the tissue specimens thereof. After preparing the slides with the tissue specimens, hematoxylin and eosin (H&E) staining was performed thereon for microscopic observation of damages to liver tissue and inflammatory cell infiltrations in liver tissues. In addition, Masson's trichrome staining was also performed thereon for microscopic observation of collagen fiber depositions in liver tissues.
In addition, the results obtained by performing hematoxylin and eosin (H&E) staining and Masson's trichrome staining as described above are shown in FIGS. 3 and 4, respectively. From the results of FIG. 3, the degrees of damages to liver tissue and the degrees of inflammatory cell infiltrations in liver tissues were measured. And also, from the results of FIG. 4, the degrees of collagen fiber depositions in liver tissues were measured.

[3] = system: Hela cells; assay: Autophagy-inducing activities in Hela cells (Autophagy Detection Kit); format: cell-based
Experimental: The autophagy-inducing activities of the compounds of the present invention were measured in Hela cells (Korean Cell Line Bank), using the Autophagy Detection Kit (ab139484, Abcam), according to the manufacturer's instructions. Specifically, 100 μL of EBSS (Earle's Balanced Salt Solution, WELGENE (LB 002-03)) containing 10% fetal bovine serum (FBS) was added to each well of a 96-well plate. Hela cells (1×10^4 cells) were added to each well and then incubated overnight at 37° C. in a CO2 incubator so as to stabilize the cells. The medium of each well containing the stabilized cells was replaced with a medium obtained by adding 10 nM or 100 nM of the compounds prepared in Examples (test compounds) to a EBSS containing 10% FBS. As a positive control, rapamycin was dissolved in dimethyl sulfoxide and then treated at a concentration of 500 nM per well. After the treatments, the cells were incubated at 37° C. in a CO2 incubator for 4 hours or 24 hours and then washed twice with the 1× assay buffer (prepared by adding 9 mL of distilled water to the 10× assay buffer). EBSS containing 5% fetal bovine serum, 1 μL/ml of Green detection reagent and 1 μL/ml of Nuclear stain was added thereto in the amount of 100 μL per well. The cells were incubated for 1 hour at 37° C. in a CO2 incubator and then washed twice with the 1× assay buffer. The absorbance values were measured at 488 nm, using a microplate reader (Cytation 3). The tests were repeated four times.
The absorbance values, which were obtained by treating Hela cells with the test compounds (100 nM) and the positive control (rapamycin, 500 nM) and then incubating for 4 hours as described in above, are shown in Table 1 below. And also, the absorbance values, which were obtained by treating Hela cells with the test compounds (10 nM or 100 nM) and the positive control (rapamycin, 500 nM) and then incubating for 24 hours as described in above, are shown in Table 2 below.

[4] = 0 week (Day 0, before administration of test compound)
[5] = 3 weeks after the administration
[6] = 4 weeks after the administration
[7] = liver tissue, H&E staining, after 4 weeks 25 mg/kg oral, hydrochloride
[8] = 0 week (Day 0, after 4 weeks DMN), 25 mg/kg oral once a day
[9] = 1 week, 25 mg/kg oral once a day after 4 weeks DMN
[10] = 2 weeks, 25 mg/kg oral once a day after 4 weeks DMN
[11] = 3 weeks, 25 mg/kg oral once a day after 4 weeks DMN
[12] = 4 weeks, 25 mg/kg oral once a day after 4 weeks DMN

With `CCN(CC)CCOc1ccc(-c2ccc(C(=O)NCC3(N(C)C)CCOCC3)s2)cc1OC.Cl.Cl` [Example 21, N-((4-(dimethylamino)tetrahydro-2H-pyran-4-yl)methyl)-5-(4-(2-diethylamino)ethoxy-3-methoxyphenyl)thiophene-2-carboxamide hydrochloride] the “ALT values (average value)” value [1, 4] was 70.98 U/L, the “AST values (average value)” value [1, 4] was 142.10 U/L and the “ALT values (average value)” value ([1]; 1 week) was 98.84 U/L. For the same compound, the “AST values (average value)” value ([1]; 1 week) was 201.30 U/L, the “ALT values (average value)” value ([1]; 2 weeks) was 104.54 U/L and the “AST values (average value)” value ([1]; 2 weeks) was 208.26 U/L. The “ALT values (average value)” value ([1]; 3 weeks) was 101.18 U/L, the “AST values (average value)” value ([1]; 3 weeks) was 195.10 U/L and the “ALT decrease in comparison with the DMN-administered group” value [2, 5] was 30%. The “AST decrease in comparison with the DMN-administered group” value [2, 5] was 22%, the “ALT decrease in comparison with the DMN-administered group” value [2, 6] was 26% and the “AST decrease in comparison with the DMN-administered group” value [2, 6] was 30%. For the same compound, the “collagen fiber depositions in liver tissues reduced in comparison with the DMN-administered group” value ([2]; after 4 weeks) was “about 62%”, the “damages to liver tissue ameliorated in comparison with the DMN-administered group” value ([2]; after 4 weeks) was “about 50%” and the “inflammatory cell infiltrations in liver tissues ameliorated in comparison with the DMN-administered group” value ([2]; after 4 weeks) was ~55%. For the same compound, the Degenerative hepatocyte numbers [2, 7] was 276.0 cells/1000 cells and 276.00 ± 16.64 cells/1000 cells, the Inflammatory cell numbers [2, 7] was 85.33 cells/mm^2 and 85.33 ± 8.41 cells/mm^2 and the “Collagen fiber occupied regions” value ([2]; liver tissue, Masson's trichrome staining, after 4 weeks 25 mg/kg oral, hydrochloride) was 10.98 %/mm^2 and 10.98 ± 1.33 %/mm^2. For the same compound, the “ALT values (average value)” value [2, 8] was 198.02 U/L, the “AST values (average value)” value [2, 8] was 329.92 U/L and the “ALT values (average value)” value [2, 9] was 92.71 U/L. For the same compound, the “AST values (average value)” value [2, 9] was 158.91 U/L, the “ALT values (average value)” value [2, 10] was 57.61 U/L and the “AST values (average value)” value [2, 10] was 107.61 U/L. The “ALT values (average value)” value [2, 11] was 44.48 U/L, the “AST values (average value)” value [2, 11] was 112.06 U/L and the “ALT values (average value)” value [2, 12] was 48.33 U/L. For the same compound, the “AST values (average value)” value [2, 12] was 110.45 U/L.

With `CCN(CC)CCOc1ccc(-c2ccc(C(=O)NCCN(C(C)C)C(C)C)s2)cc1OC.Cl.Cl` [Example 6, N-(2-(diisopropylamino)ethyl)-5-(4-(2-diethylamino)ethoxy-3-methoxyphenyl)thiophene-2-carboxamide hydrochloride] the “Absorbance (at 488 nm)” value ([3]; test compound 10 nM, incubation for 24 hours) was 1784.6, the “Absorbance (at 488 nm)” value ([3]; test compound 100 nM, incubation for 4 hours) was 1670.5 and the “Absorbance (at 488 nm)” value ([3]; test compound 100 nM, incubation for 24 hours) was 1893.7. For the same compound, the “ALT values (average value)” value [1, 4] was 68.02 U/L, the “AST values (average value)” value [1, 4] was 141.78 U/L and the “ALT values (average value)” value ([1]; 1 week) was 80.46 U/L. For the same compound, the “AST values (average value)” value ([1]; 1 week) was 220.86 U/L, the “ALT values (average value)” value ([1]; 2 weeks) was 98.94 U/L and the “AST values (average value)” value ([1]; 2 weeks) was 215.42 U/L. The “ALT values (average value)” value ([1]; 3 weeks) was 109.80 U/L and the “AST values (average value)” value ([1]; 3 weeks) was 249.56 U/L.

Source: patent US12110281B2, “Catechol derivatives or salt thereof, processes for preparing the same, and pharmaceutical compositions comprising the same” (HEXAPHARMATEC CO., LTD., priority 2018, dated 2024)
